Assays:
[1] = Test for water solubility; assay type: physicochemical; settings: water
Excerpt: 3. Test for water solubility
A standard plot of UV absorbance(220 nm) vs. concentration was made; and employed to determine water-solubility.
The mixture was then passed through a 0.45 micron disposable membrane filter before dilution and UV measurement.

ICR mice = assay: Acute toxicity test; assay type: in vivo; design: Lethality: unit not given here; settings: for Lethality: 10080 min
Experimental: 7-week-old ICR mice(male: 34±2 g; female: 31±2 g) were fed with solid food and water under the condition of 23±1° C. temperature and 65±5% humidity before the test.
Each treatment group consisted of 6 mice. The test compounds were administered intraperitoneally.
For 7 days after the administration, the appearance and the fate of the tested animals were recorded. The dead animals were subjected to autopsy and their visible pathological changes were observed. Their viscerals were stored in 10% formalin solution.

murine leukemia L1210 = assay: Antitumor activity test on murine leukemia L1210 in vivo; design: species or system male BDF1 mice; settings: days 1, 5, 9
In short: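 Intraperitoneal L1210 model: 1×10^6 cells inoculated i.p. into 6-week-old male BDF1 mice (21±3 g) on day 0, seven per group. Compounds in 0.5% CMC given i.p. on days 1, 5 and 9; vehicle-only controls. T/C % from mean survival time of treated over control.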

[2] = system: murine leukemia L1210 cells; assay: Growth inhibition test on cultured murine leukemia L1210 cells; assay type: cell-based; settings: 48 hours, 37° C., Trypan blue viability
In short: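 L1210 cells (1×10^5) exposed to graded compound concentrations in RPMI 1640 with 10% fetal calf serum, 37° C, 5% CO2, 48 h. Viability by 0.17% Trypan blue staining, relative to untreated control cells.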

CCC1(CC)OC2C[NH2+][Pt-2]3([NH2+]CC2O1)[O]CC(=O)[O]3 [Example 8, (glycolato-O,O')[(4R,5R)-4,5-bis(aminomethyl)-2,2-diethyl-1,3-dioxolane]platinum(II)]
Solubility in water [1]: > 30 mg/mL | Number of dead mice for 7 days (ICR mice; female, 41.3 mg/kg i.p.): 0/6 | Number of dead mice, 1st day (ICR mice; female, 41.3 mg/kg i.p.): 0/6 | Lethality (ICR mice; female, 41.3 mg/kg i.p.): 0.0 | Number of dead mice for 7 days (ICR mice; female, 54.9 mg/kg i.p.): 3/6 | Number of dead mice, 1st day (ICR mice; female, 54.9 mg/kg i.p.): 0/6 | Number of dead mice, 3rd day (ICR mice; female, 54.9 mg/kg i.p.): 1/6 | Number of dead mice, 4th day (ICR mice; female, 54.9 mg/kg i.p.): 2/5 | Lethality (ICR mice; female, 54.9 mg/kg i.p.): 50.0 | Number of dead mice for 7 days (ICR mice; female, 71.4 mg/kg i.p.): 5/6 | Number of dead mice, 1st day (ICR mice; female, 71.4 mg/kg i.p.): 0/6 | Number of dead mice, 4th day (ICR mice; female, 71.4 mg/kg i.p.): 2/6 | Number of dead mice, 5th day (ICR mice; female, 71.4 mg/kg i.p.): 3/4 | Lethality (ICR mice; female, 71.4 mg/kg i.p.): 83.7 | Number of dead mice for 7 days (ICR mice; female, 91.8 mg/kg i.p.): 6/6 | Number of dead mice, 1st day (ICR mice; female, 91.8 mg/kg i.p.): 0/6 | Number of dead mice, 2nd day (ICR mice; female, 91.8 mg/kg i.p.): 1/6 | Number of dead mice, 3rd day (ICR mice; female, 91.8 mg/kg i.p.): 3/5 | Number of dead mice, 4th day (ICR mice; female, 91.8 mg/kg i.p.): 2/2 | Lethality (ICR mice; female, 91.8 mg/kg i.p.): 100.0 | Number of dead mice for 7 days (ICR mice; male, 41.3 mg/kg i.p.): 0/6 | Number of dead mice, 1st day (ICR mice; male, 41.3 mg/kg i.p.): 0/6 | Lethality (ICR mice; male, 41.3 mg/kg i.p.): 0.0 | Number of dead mice for 7 days (ICR mice; male, 54.9 mg/kg i.p.): 4/6 | Number of dead mice, 1st day (ICR mice; male, 54.9 mg/kg i.p.): 0/6 | Number of dead mice, 3rd day (ICR mice; male, 54.9 mg/kg i.p.): 2/6 | Number of dead mice, 4th day (ICR mice; male, 54.9 mg/kg i.p.): 2/4 | Lethality (ICR mice; male, 54.9 mg/kg i.p.): 66.7 | Number of dead mice for 7 days (ICR mice; male, 71.4 mg/kg i.p.): 5/6 | Number of dead mice, 1st day (ICR mice; male, 71.4 mg/kg i.p.): 0/6 | Number of dead mice, 3rd day (ICR mice; male, 71.4 mg/kg i.p.): 1/6 | Number of dead mice, 4th day (ICR mice; male, 71.4 mg/kg i.p.): 4/5 | Lethality (ICR mice; male, 71.4 mg/kg i.p.): 83.3 | Number of dead mice for 7 days (ICR mice; male, 91.8 mg/kg i.p.): 6/6 | Number of dead mice, 1st day (ICR mice; male, 91.8 mg/kg i.p.): 0/6 | Number of dead mice, 2nd day (ICR mice; male, 91.8 mg/kg i.p.): 2/6 | Number of dead mice, 3rd day (ICR mice; male, 91.8 mg/kg i.p.): 4/4 | Lethality (ICR mice; male, 91.8 mg/kg i.p.): 100.0 | T/C (%) (murine leukemia L1210; 3.1 mg/kg i.p.): 154% | T/C (%) (murine leukemia L1210; 6.2 mg/kg i.p.): 198% | T/C (%) (murine leukemia L1210; 12.5 mg/kg i.p.): 245% | T/C (%) (murine leukemia L1210; 25 mg/kg i.p.): toxic | T/C (%) (murine leukemia L1210; 50 mg/kg i.p.): toxic | IC50 (concentration required for 50% inhibition of growth) [2]: 0.06 mg/L

Reference: US5395947A, “Platinum(II) complex and processes for preparing the same” (Sunkyong Industries, Ltd., priority 1991, dated 1995)
